# According to article PMC5308254, “Bioactivity of Natural and Engineered Antimicrobial Peptides from Venom of the Scorpions Urodacus yaschenkoi and U. manicatus” (Toxins, 2017):
# No end group written: not given here.
# Assays:
# Escherichia coli (D31) = assay: Growth inhibition assay (MIC), E. coli; type: cell-based; details: 384-well plates, LB, 37 °C, peptide 0.015–250 µM; growth totally inhibited; average of n ≥ 3; dash = no inhibition
# Description: (§1) The minimal inhibitory concentration (MIC) of each AMPs was determined against the Gram-positive bacteria Listeria monocytogenes (DSM20600), L. grayi (DSM20601), L. fleischmannii (DSM24998), Staphylococcus aureus (DSM2569) and Micrococcus luteus (DSM20030), and the Gram-negative species Escherichia coli (D31) and Pseudomonas aeruginosa (DSM50071). The scorpion peptides were prepared at concentrations of 0.015–250 μM. The assays were carried out in 384-well plates (Greiner Bio One, Frickenhausen, Germany) using Brain Heart Infusion Broth (BHIB) medium for Listeria spp., Tryptic Soy Broth (TSB) for S. aureus, and lysogeny broth (LB) for the others. The bacteria were cultivated overnight at either 37 °C (Listeria spp., S. aureus, E. coli and P. aeruginosa) or 30 °C (M. luteus) and subcultured in fresh media before the growth inhibition assays. Growth inhibition was measured as previously described.
# L. grayi (DSM20601) = assay: Growth inhibition assay (MIC), L. grayi; type: cell-based, Listeria grayi; details: 384-well plates, BHIB, 37 °C, peptide 0.015–250 µM; growth totally inhibited; average of n ≥ 3; dash = no inhibition
# Description: as §1
# [1] = tested on: Micrococcus luteus (DSM20030); assay: Growth inhibition assay (MIC), M. luteus; type: cell-based; details: 384-well plates, LB, 30 °C, peptide 0.015–250 µM; MIC = concentration at which growth was totally inhibited; average of n ≥ 3; dash = no inhibition
# Description: as §1
# [2] = Cytotoxicity, alamarBlue, BHK-21 cells; type: cell-based, hamster; details: hamster, 2 h at 37 °C, 0.1–100 µM, alamarBlue fluorescence, non-linear fit, concentration reducing viability by 50%, n ≥ 3, read-out: EC50 (effective cytotoxic concentration)
# Description: (§2) Cytotoxicity was evaluated using the baby hamster kidney cell line (BHK-21) included in F2H®-Kit Basic (Chromotek, Planegg-Martinsried, Germany). The BHK-21 cells were grown in 25-cm^2 cell culture flasks (Greiner Bio One, Frickenhausen, Germany) containing Dulbecco’s Modified Eagle’s Medium (DMEM) supplemented with 4.5 g/L glucose, 110 mg/L sodium pyruvate and L-glutamine, and 10% fetal bovine serum (FBS), and were maintained in an NU-5810 incubator (ibs tecnomara, Fernwald, Germany) at 37 °C with a 5% CO2 atmosphere. The cells were subcultured at ~90% confluence by detaching with 0.25% trypsin and 0.03% EDTA (Sigma-Aldrich, St Louis, MO, USA). The AMPs were dissolved in water and diluted to final concentrations of 0.1, 1, 10 and 100 µM in DMEM.
# (§3) BHK-21 cells were prepared and tested as previously described. Confluent cells were detached, counted and seeded at a concentration of 8.5 × 10^4 cell/mL in a 96-well culture plate (Greiner Bio One-Cell Star) 48 h before each experiment. The cells were rinsed with 100 µL PBS before adding 100 µL of the AMP solution and incubating for 2 h at 37 °C. The AMP solution was then removed and the cells were rinsed again with PBS before staining with 10% v/v alamarBlue™ Dye (Thermo Fisher Scientific, Schwerte, Germany) in DMEM for 1 h. The fluorescence of the metabolized alamarBlue™ Dye was measured in an Eon microplate reader using excitation and emission filters of 528 and 590 nm, respectively. DMEM and cells exposed to DMEM without AMPs were included as a blank reference and negative control, respectively. Four independent experiments were carried out for each AMP concentration in triplicate. To assess the percentage of viable cells compared to the control, the data were analyzed with GraphPad Prism v5.0 software using non-linear regression to fit the curve (Figure S2). The EC50 was reported as the AMP concentration that reduces cell viability by 50%.
# [3] = tested on: baby hamster kidney cells (BHK21); assay: Cytotoxicity, alamarBlue, BHK-21 cells; type: cell-based; details: 2 h at 37 °C, 0.1–100 µM, alamarBlue fluorescence, non-linear fit, n ≥ 3
# Description: as §2, §3
# pig erythrocytes = assay: Hemolytic activity on pig erythrocytes; type: cell-based; details: 1 h at 37 °C; for HC10 (hemolytic concentration) / HC90 (hemolytic concentration) / HC50 (hemolytic concentration): 6.25–100 µM, absorbance 570 nm, non-linear fit; for HC10 (hemolytic concentration) / HC90 (hemolytic concentration): n ≥ 3; for HC50 (hemolytic concentration): n ≥ 3, n.c. (100) = not convergent at 100 µM
# Description: The hemolytic activity of each AMP was determined using pig erythrocytes. Serial dilutions (6.25–100 µM) of each AMP were prepared, and after incubation for 1 h at 37 °C the cells were centrifuged and the absorbance of the supernatant was measured at 570 nm using an Eon Microplate Spectrophotometer (BioTek Instruments, Winooski, VT, USA). Three independent experiments were carried out for each concentration in triplicate. PBS and 10% Triton X–100 were used as negative and positive controls, respectively. The percentage hemolysis was calculated using the formula 100((Apeptide–APBS)/(Atriton–APBS)). The AMP concentration causing 50% hemolysis (HC50) of the pig erythrocytes was determined by non-linear regression with the data fitted to the logistical sigmoidal equation, using GraphPad Prism v5.0 (GraphPad Software, San Diego, CA, USA) (Figure S2).
# [4] = tested on: Listeria monocytogenes (DSM20600); assay: Growth inhibition assay (MIC), L. monocytogenes; type: cell-based; details: 384-well plates, BHIB, 37 °C, peptide 0.015–250 µM; growth totally inhibited; average of n ≥ 3; dash = no inhibition
# Description: as §1
# seven different bacteria = assay: Antibacterial activity against all seven bacteria tested (summary); type: cell-based; details: approximate overall value
# Description: as §1
# [5] = tested on: L. fleischmannii (DSM24998); assay: Growth inhibition assay (MIC), L. fleischmannii; type: cell-based, Listeria fleischmannii; details: 384-well plates, BHIB, 37 °C, peptide 0.015–250 µM; growth totally inhibited; average of n ≥ 3; dash = no inhibition
# Description: as §1
# [6] = tested on: Pseudomonas aeruginosa (DSM50071); assay: Growth inhibition assay (MIC), P. aeruginosa; type: cell-based; details: LB, 37 °C, highest concentration tested 250 µM
# Description: as §1
Substance,MIC E. coli (Escherichia coli (D31)) [µM],MIC L. grayi (L. grayi (DSM20601)) [µM],MIC M. luteus [1] [µM],CC50 at 2 h [2] [µM],EC10 (effective cytotoxic concentration) [3] [µM],EC90 (effective cytotoxic concentration) [3] [µM],HC10 (hemolytic concentration) (pig erythrocytes) [µM],HC90 (hemolytic concentration) (pig erythrocytes),HC50 (hemolytic concentration) (pig erythrocytes) [µM],MIC L. monocytogenes [4] [µM],MIC against all seven bacteria tested (seven different bacteria),MIC L. fleischmannii [5] [µM],MIC P. aeruginosa (concentration inhibiting growth) [6] [µM],"percentage of hemolysis (pig erythrocytes; 100 µM peptide (highest tested), 10% Triton X-100 = 100% hemolysis)"
GFWGKLWEGVKNAI-NH2 [UyCT1],4,4,1,17.4,0.65,52.12,31.5,644.46 µM,142.5,4,~ 4 µM,4,60,
GFWGKLWEGVKNAIKKK-NH2 [D11],4,1,0.25,17.8,0.66,53.43,39.76,"30,984.53 µM",1110,2,~ 1 µM,1,30,~ 10%
